Species: Rattus norvegicus
Assay: DrugMatrix - Regimen: Daily Repeat
Type: toxicity, organism-based, Sprague-Dawley
Design: regimen Daily Repeat, gender Male, age 6-8 weeks
Conditions: in vivo, sc, route subcutaneous, […]; for ABSOLUTE BASOPHIL / ABSOLUTE EOSINOPHIL / ABSOLUTE LYMPHOCYTE / ABSOLUTE MONOCYTE / BASOPHIL / EOSINOPHIL / ERYTHROCYTE COUNT / HEMATOCRIT / HEMOGLOBIN / LEUKOCYTE COUNT / LYMPHOCYTE / MEAN CORPUSCULAR HEMOGLOBIN / MEAN CORPUSCULAR HEMOGLOBIN CONCENTRATION / MEAN CORPUSCULAR VOLUME / MONOCYTE / NEUTROPHIL / NUCLEATED RED BLOOD CELLS / PLATELET COUNT: tissue Blood; for ALANINE AMINOTRANSFERASE / ALBUMIN / ASPARTATE AMINOTRANSFERASE / BLOOD UREA NITROGEN / CARBON DIOXIDE / CHLORIDE / CHOLESTEROL / CREATINE PHOSPHOKINASE / CREATININE / LACTATE DEHYDROGENASE / LIPASE / PHOSPHORUS / POTASSIUM / SODIUM / TOTAL BILIRUBIN / TOTAL PROTEIN / URIC ACID / GLUCOSE: tissue Plasma
[1] = 0 mg/kg, 72 h, dose level Control, time 3 day
[2] = 0 mg/kg, 120 h, dose level Control, time 5 day
[3] = 64 mg/kg, 72 h, dose level Low, time 3 day

Nc1ccc(S(N)(=O)=O)cc1 [SULFANILAMIDE]
ABSOLUTE BASOPHIL [1]: 0 CELLS/uL
ABSOLUTE EOSINOPHIL [1]: 92.33 CELLS/uL
ABSOLUTE LYMPHOCYTE [1]: 12247.5 CELLS/uL
ABSOLUTE MONOCYTE [1]: 389.67 CELLS/uL
BASOPHIL [1]: 0%
EOSINOPHIL [1]: 0.67%
ERYTHROCYTE COUNT [1]: 5.45 x10E6/uL
HEMATOCRIT [1]: 34.85%
HEMOGLOBIN [1]: 12.97 G/DL
LEUKOCYTE COUNT [1]: 14.05 x10E3/uL
LYMPHOCYTE [1]: 87.33%
MEAN CORPUSCULAR HEMOGLOBIN [1]: 23.78 pg
MEAN CORPUSCULAR HEMOGLOBIN CONCENTRATION [1]: 37.22 G/DL
MEAN CORPUSCULAR VOLUME [1]: 63.93 fL
MONOCYTE [1]: 2.67%
NEUTROPHIL [1]: 9.33%
NUCLEATED RED BLOOD CELLS [1]: 0 /100WBC
PLATELET COUNT [1]: 1174 x10E3/uL
ALANINE AMINOTRANSFERASE [1]: 48.83 u/L
ALBUMIN [1]: 4.23 G/DL
ASPARTATE AMINOTRANSFERASE [1]: 90 u/L
BLOOD UREA NITROGEN [1]: 15.33 mg/dL
CARBON DIOXIDE [1]: 23 mmol/L
CHLORIDE [1]: 103.5 MEQ/L
CHOLESTEROL [1]: 70.5 mg/dL
CREATINE PHOSPHOKINASE [1]: 651.83 u/L
CREATININE [1]: 0.22 mg/dL
LACTATE DEHYDROGENASE [1]: 165 u/L
LIPASE [1]: 9.33 u/L
PHOSPHORUS [1]: 12.03 mg/dL
POTASSIUM [1]: 6.17 MEQ/L
SODIUM [1]: 142.62 MEQ/L
TOTAL BILIRUBIN [1]: 0.2 mg/dL
TOTAL PROTEIN [1]: 5.73 G/DL
URIC ACID [1]: 1.77 mg/dL
ABSOLUTE BASOPHIL [2]: 0 CELLS/uL
ABSOLUTE EOSINOPHIL [2]: 0 CELLS/uL
ABSOLUTE LYMPHOCYTE [2]: 12736.67 CELLS/uL
ABSOLUTE MONOCYTE [2]: 253.5 CELLS/uL
BASOPHIL [2]: 0%
EOSINOPHIL [2]: 0%
ERYTHROCYTE COUNT [2]: 5.72 x10E6/uL
HEMATOCRIT [2]: 36.05%
HEMOGLOBIN [2]: 13.62 G/DL
LEUKOCYTE COUNT [2]: 14.18 x10E3/uL
LYMPHOCYTE [2]: 89.33%
MEAN CORPUSCULAR HEMOGLOBIN [2]: 23.83 pg
MEAN CORPUSCULAR HEMOGLOBIN CONCENTRATION [2]: 37.8 G/DL
MEAN CORPUSCULAR VOLUME [2]: 63.05 fL
MONOCYTE [2]: 1.83%
NEUTROPHIL [2]: 8.83%
NUCLEATED RED BLOOD CELLS [2]: 0 /100WBC
PLATELET COUNT [2]: 1322.17 x10E3/uL
ALANINE AMINOTRANSFERASE [2]: 48.83 u/L
ALBUMIN [2]: 4.27 G/DL
ASPARTATE AMINOTRANSFERASE [2]: 75.83 u/L
BLOOD UREA NITROGEN [2]: 15.5 mg/dL
CARBON DIOXIDE [2]: 30.5 mmol/L
CHLORIDE [2]: 102.33 MEQ/L
CHOLESTEROL [2]: 76.17 mg/dL
CREATINE PHOSPHOKINASE [2]: 205.5 u/L
CREATININE [2]: 0.2 mg/dL
GLUCOSE [2]: 149.67 mg/dL
LACTATE DEHYDROGENASE [2]: 124.5 u/L
LIPASE [2]: 10 u/L
PHOSPHORUS [2]: 10.93 mg/dL
POTASSIUM [2]: 6.59 MEQ/L
SODIUM [2]: 143.1 MEQ/L
TOTAL BILIRUBIN [2]: 0.2 mg/dL
TOTAL PROTEIN [2]: 6.05 G/DL
URIC ACID [2]: 1.45 mg/dL
ABSOLUTE BASOPHIL [3]: 0 CELLS/uL
ABSOLUTE EOSINOPHIL [3]: 0 CELLS/uL
ABSOLUTE LYMPHOCYTE [3]: 13215.67 CELLS/uL
ABSOLUTE MONOCYTE [3]: 191 CELLS/uL
BASOPHIL [3]: 0%
EOSINOPHIL [3]: 0%
ERYTHROCYTE COUNT [3]: 5.71 x10E6/uL
HEMATOCRIT [3]: 36.53%
HEMOGLOBIN [3]: 13.5 G/DL
LEUKOCYTE COUNT [3]: 14.17 x10E3/uL
LYMPHOCYTE [3]: 93.33%
MEAN CORPUSCULAR HEMOGLOBIN [3]: 23.67 pg
MEAN CORPUSCULAR HEMOGLOBIN CONCENTRATION [3]: 36.97 G/DL
MEAN CORPUSCULAR VOLUME [3]: 64.03 fL
MONOCYTE [3]: 1.33%
NEUTROPHIL [3]: 5.33%
NUCLEATED RED BLOOD CELLS [3]: 0 /100WBC
PLATELET COUNT [3]: 1225.33 x10E3/uL
ALANINE AMINOTRANSFERASE [3]: 53 u/L
ALBUMIN [3]: 4.13 G/DL
ASPARTATE AMINOTRANSFERASE [3]: 87 u/L
BLOOD UREA NITROGEN [3]: 16.33 mg/dL
CARBON DIOXIDE [3]: 25.33 mmol/L
CHLORIDE [3]: 103 MEQ/L
CHOLESTEROL [3]: 70.33 mg/dL
CREATINE PHOSPHOKINASE [3]: 269 u/L
CREATININE [3]: 0.24 mg/dL
GLUCOSE [3]: 150.67 mg/dL
LACTATE DEHYDROGENASE [3]: 408.33 u/L
LIPASE [3]: 10 u/L
PHOSPHORUS [3]: 13.03 mg/dL
POTASSIUM [3]: 6.94 MEQ/L
SODIUM [3]: 144.53 MEQ/L
TOTAL BILIRUBIN [3]: 0.27 mg/dL
TOTAL PROTEIN [3]: 5.7 G/DL
URIC ACID [3]: 1.7 mg/dL

From ChEMBL document CHEMBL3885881, “DrugMatrix”
